# Assay results published in paper PMC1090567, “S-Nitrosothiols modulate G protein-coupled receptor signaling in a reversible and highly receptor-specific manner” (BMC Cell Biology, 2005).
# Target: T1, Adenosine A1 (Rattus norvegicus, UniProt P25099)
# T1 construct: gene Adora1; native receptor in rat forebrain P2 membranes
# T1 sequence (P25099 1-326): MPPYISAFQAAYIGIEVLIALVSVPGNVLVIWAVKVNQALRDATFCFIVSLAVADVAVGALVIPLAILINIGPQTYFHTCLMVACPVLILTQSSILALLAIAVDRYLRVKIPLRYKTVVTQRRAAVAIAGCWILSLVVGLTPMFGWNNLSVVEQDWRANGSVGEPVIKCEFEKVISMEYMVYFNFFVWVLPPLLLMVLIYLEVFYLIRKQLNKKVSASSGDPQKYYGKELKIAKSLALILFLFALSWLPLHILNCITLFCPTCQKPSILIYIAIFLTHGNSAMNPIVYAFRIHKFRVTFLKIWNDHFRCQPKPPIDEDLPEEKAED
# Assay: […]GTPγS binding, rat forebrain membranes
# Assay type: biochemical
# Conditions: agonist; control without GSNO; 10 μM GDP, pH 7.4, 25 °C
structure (smiles),measurement,value
Nc1nc(Cl)nc2c1ncn2[C@@H]1O[C@H](CO)[C@@H](O)[C@H]1O [2-chloroadenosine],Control / log(EC50),-6.90 ± 0.04
